We go through two molecules from article PMC9437721, “Identification and characterization of two Isatis indigotica O-methyltransferases methylating C-glycosylflavonoids” (Horticulture Research, 2022).

Where two headings read alike, the source gives them in different places.

For this assay, the system named is T1, IiOMT2.
T1 construct: N-terminal His6-SUMO tag kept (pE-SUMO), E. coli Rosetta (DE3), Ni-NTA
As to the kind of experiment: O-methyltransferase assay, UPLC, Michaelis-Menten fit. It counts as biochemical, Isatis indigotica. Conditions: 480 μM SAM, Tris-HCl pH 9.0, 45 °C. From the text: O-methyltransferase assay, UPLC, Michaelis-Menten fit on IiOMT2

As to `O=c1cc(-c2ccc(O)c(O)c2)oc2cc(O)cc(O)c12` [compound 2, luteolin], the Km (read-out: Luteolin / IiOMT2) is 77 ± 12.6 µM.

As for `O=c1cc(-c2ccc(O)c(O)c2)oc2cc(O)c([C@@H]3O[C@H](CO)[C@@H](O)[C@H](O)[C@H]3O)c(O)c12` [compound 1, isoorientin], the Km (read-out: Isoorientin / IiOMT2) was determined as 62.1 ± 16.1 µM.
